Results reported in patent US20210113715A1, “TARGETED NANOPARTICLES FOR DIAGNOSING, DETECTING AND TREATING CANCER” (CEDARS-SINAI MEDICAL CENTER, priority 2018, published 2021).
“Also recorded” adds a separate entry of the source. Values belong to the compound of their own block, whether it stands above or below them.

Legend:
[1] = tested on: OATP transporter (U87 cells); assay: Inhibition of HMC-FH uptake by pre-incubation with inhibitors; type: cell-based; details: fluorescence microscopy and flow cytometry
From the text: Next, we tested the ability of HMC-FH to target and internalize into various GBM cancer cell lines.

[2] = tested on: PC3 prostate cancer cells; assay: Transwell cell migration, PC3; type: cell-based; details: PC3, 24 h at 37° C.
Experimental: After incubation, nonmigratory cells and media were washed from transwells, and those cells that migrated to the bottom of the filters were, fixed and stained and imaged using a fluorescence Microscope. […] Quantification of the average number of cells per image that have migrated (FIG. 8C).

[3] = tested on: intracranial U87 GBM tumors; assay: Survival studies (Kaplan-Meier) of mice with intracranial U87 tumors; type: in vivo; details: treated 14 days after tumor implantation, 3 umol drug/kg i.v. twice a week for three weeks, n=5
Experimental: A dose of 3 umol drug/kg, 22 mM Fe (FH) was administered i.v via tail vein injection twice a week for […].
(§1) A dose of 3 umol drug/kg, 22 mM Fe (FH) was administered i.v. via tail vein injection twice a week for three weeks.
as §1
HMC-FH(PXL) and HMC-FH(BFA) increase the survival of mice with GBM tumors. In these experiments, we injected mice (n=5) with intracranial U87 GBM tumors with HMC-FH encapsulated with either paclitaxel (PTX) or docetaxel (DXT). As control, we injected either PBS or the corresponding drug along at equal concentrations. In initial studies, treatment started “late”, 14 days after tumor implantation. […] In additional studies, treatment was started earlier, 5 days after injection, to find out if an early treatment would improve survival. Impressive results were obtained by injecting HMC-FH(PXL), 5 days after tumor implantation.
In initial animal studies using BFA and HMC-FH(BFA), we injected mice (n=5) with intracranial U87 GBM tumors with either BFA (dissolved in DMSO) or HMC-FH(BFA) in saline. In these studies, treatment started “late”, 14 days after tumor implantation. […] The ability of BFA to cross the BBB has not been studied or reported, to our knowledge. However, due to its poor solubility, it is advantageous to encapsulate BFA in HMC-FH.

[4] = tested on: TMZ-resistant U87R cells; assay: Transwell cell migration, U87R; type: cell-based
Experimental: After incubation, nonmigratory cells and media were washed from transwells, and those cells that migrated to the bottom of the filters were, fixed and stained and imaged using a fluorescence Microscope (Keyence BZ-X7 00). Representative images (5 fields) were taken of treatment (2 uM of each-BFA, HMC-FH and HMC-FH (BFA, DMSO) for quantification.

[5] = tested on: LNCaP prostate cancer cells; assay: Transwell cell migration, LNCaP; type: cell-based; details: 24 h at 37° C.
[6] = tested on: intracranial U87MG tumors; details: mouse, in vivo
From the text: Mouse brains were extracted from the mouse skull, and tumors visualized and resected from the healthy brain while recording using SIRIS.

[7] = tested on: human intracranial U87MG tumors; assay: HMC-FH(PTX) treatment of nude mice with intracranial U87MG tumors; type: in vivo; details: six treatments, 1 mg HMC, 3 mg PTX and 4 mgFe/kg; treatment period 40 days after tumor inoculation
Experimental: Brain MRI images of treated mice (FIG. 46A). […] Corresponding mice body weight measurements (FIG. 46D).
The HMC-FH(PTX) was next used to treat nude mice with human intracranial U87MG tumors. […] It is not until after the treatment period that tumors start developing in the HMC-FH(PTX) treated mice (FIG. 46B).

SMILES: O=CC[C@@H](O)[C@H](O)[C@H](O)CO [2-deoxyglucose]
effect of pre-incubation on HMC-FH uptake [1]: do not block the internalization

SMILES: COC(=O)N[C@H](C(=O)N[C@@H](Cc1ccccc1)[C@@H](O)CN(Cc1ccc(-c2ccccn2)cc1)NC(=O)[C@@H](NC(=O)OC)C(C)(C)C)C(C)(C)C [Atazanir]
effect of pre-incubation on HMC-FH uptake [1]: uptake and cell associated fluorescence was reduced; also recorded: inhibits HMC-FH internalization

SMILES: C[C@H]1CCC/C=C/[C@@H]2C[C@H](O)C[C@H]2[C@H](O)/C=C/C(=O)O1 [BFA, Brefeldin A]
cell migration [2]: decreased migration | survival, BFA formulations [3]: significantly longer than in the control mice; also recorded: enhanced mice survival | cell migration ([4]; U87R, 2 uM, 24 h): decreased migration | cell migration ([4]; printed as U87 cells): decrease cell migration

SMILES: CC(=O)O[C@@]12CO[C@@H]1C[C@H](O)[C@@]1(C)C(=O)[C@H](O)C3=C(C)[C@@H](OC(=O)[C@H](O)[C@@H](NC(=O)OC(C)(C)C)c4ccccc4)C[C@@](O)([C@@H](OC(=O)c4ccccc4)[C@H]21)C3(C)C [DXT, docetaxel]
cell migration [2]: decreased migration | cell migration [5]: decreased migration

fluorescent labeling / localization to tumor [6]: does not show tumor localization
SMILES: CC1(C)C(/C=C/C=C/C=C/C=C2\N(CCCCS(=O)(=O)[O-])c3ccc4ccccc4c3C2(C)C)=[N+](CCCCS(=O)(=O)[O-])c2ccc3ccccc3c21.[Na+] [ICG]

SMILES: CC(=O)O[C@H]1C(=O)[C@@]2(C)[C@H]([C@H](OC(=O)c3ccccc3)[C@]3(O)C[C@H](OC(=O)[C@H](O)[C@@H](NC(=O)c4ccccc4)c4ccccc4)C(C)=C1C3(C)C)[C@]1(OC(C)=O)CO[C@@H]1C[C@@H]2O [PTX, paclitaxel]
tumor growth / tumor detection by MRI or histopathology [7]: developed visible tumor
